Test results taken from paper PMC8427973, “Regulation of the HTRA2 Protease Activity by an Inhibitory Antibody-Derived Peptide Ligand and the Influence on HTRA2-Specific Protein Interaction Networks in Retinal Tissues” (Biomedicines, 2021).

Tests used:
[1] = target: T1, recombinant HTRA2 protein (Homo sapiens, UniProt O43464); test: HTRA2 protease activity assay with fluorescent H2-optimal substrate; type: biochemical; conditions: for Average degradation rate of the optimal substrate H2 by HTRA2 (enzymatic reaction rate per minute): pH 8.0, RT, untreated positive control 229 U/min
T1 construct: 6xHis (C); purchased Novoprotein Scientific INC., Summit, NJ, USA
T1 sequence (O43464 134-458): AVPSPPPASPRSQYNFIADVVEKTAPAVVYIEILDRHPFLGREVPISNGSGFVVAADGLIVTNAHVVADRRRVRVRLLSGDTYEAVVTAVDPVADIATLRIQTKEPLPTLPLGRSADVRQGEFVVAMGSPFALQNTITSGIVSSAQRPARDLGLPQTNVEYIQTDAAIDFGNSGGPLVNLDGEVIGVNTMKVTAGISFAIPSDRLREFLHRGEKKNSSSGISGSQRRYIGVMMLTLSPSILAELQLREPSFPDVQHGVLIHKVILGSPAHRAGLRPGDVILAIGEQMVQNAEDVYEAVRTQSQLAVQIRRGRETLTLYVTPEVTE
Protocol: The HTRA2 protease activity assay was performed as described by Martins et al. (2003), but with some slight modifications. The experiment was performed with 100 nM recombinant HTRA2 protein (Novoprotein Scientific INC., Summit, NJ, USA) in a protease assay buffer (50 mM tris(hydroxymethyl)-aminomethane (TRIS), 0.5 mM ethylenediaminetetraacetic acid (EDTA), and 1 mM dithiothreitol (DTT), pH 8.0) containing 10 µM H2-optimal substrate (Innovagen AB, Lund, Sweden). The H2-optimal substrate is commonly used to measure the protease activity of HTRA2 and consists of a structural quencher and a fluorophore unit. The cleavage of the substrate leads to the disruption of the quencher/fluorophore complex and the degradation rate can be measured by fluorescence. The different sample groups were treated with 50 µM PDZ-Opt, 50 µM PDZ-Sub, 50 µM synthetic CDR1 peptide, or 30 µM UCF-101, respectively. The drug compound UCF-101 is an inhibitor of the catalytic domain of HTRA2 and was purchased from Sigma Aldrich (Darmstadt, Germany). The concentrations of the peptide ligands for the HTRA2 protease activity assay were chosen from the previous publication. The concentration of UCF-101 was determined to be optimal from the preliminary experiments. In addition, a positive control containing only 100 nM recombinant HTRA2 and a negative control (only protease assay buffer) were included in this experiment. All of the sample groups were incubated for 1 h at 37 °C to determine the maximum degradation rate of HTRA2. For the analysis of the enzymatic reaction rate of HTRA2, all samples were measured subsequently after the addition of the 10 µM H2-optimal substrate at RT. Fluorescence was monitored on a Spark® 10 M multimode microplate-reader (Tecan Trading AG, Männedorf, Switzerland) with an excitation at 320 nm and a fluorescence emission at 405 nm. The fluorescence background of the substrate was substracted from the fluorescence intensities of the different the sample groups to normalize the data.
To determine the proteolytic activity of HTRA2 we used the fluorescent H2 optimal substrate developed by Martins et al. (2003). The optimal substrate H2 encoded a short specific amino acid sequence, which is preferentially cleaved by HTRA2, and was also modified with a fluorescent dye and quencher. […] Under physiological conditions, the proteolytic activity of HTRA2 is suppressed by the C-terminal PDZ domain, which blocks the access of potential substrates to the catalytic domain by steric hindrance. The binding of short hydrophobic polypeptides to the allosteric PDZ domain can induce specific conformational changes of HTRA2 and are able to regulate its proteolytic activity. Therefore, Martins et al. (2003) specifically designed the peptide ligands PDZ-Opt (GQYYFV) and PDZ-Sub (GGIRRV), which are known to increase the proteolytic activity of HTRA2 in this assay.

[2] = test system: HTRA2-specific interaction partners FNLA, NCKAP1, POTEE, PSMC1, SEC13; test: Targeted MS analysis (accurate inclusion mass screening, AIMS) of HTRA2 Co-IP eluates; parameters: species or system house swine (Sus scrofa); conditions: repeated Co-IP, n = 3 biological replicates, Figure S3, CDR p < 0.05, UCF-101 p > 0.05
From the text: Thereby, the peptides of interest were listed in the software inclusion list and the LTQ Orbitrap XL MS system only required MS/MS scans of the parent ions if the listed peptide was detected with an accurate mass and charge state. […] The selected peptides needed to be fully tryptic with a maximum of one missed cleavage, as described earlier. For this experiment, we repeated the Co-IP of the HTRA2-specific protein interaction partners ± treatments (see method Section 2.4) and subjected the respective eluate fractions to further in-solution trypsin digestion, as described elsewhere. In this case, the LTQ Orbitrap XL MS system was coupled online to an EASY-nLC 1200 system (Thermo Fisher Scientific, Rockford, IL, USA) using a PepMap C18 column system (75 µm × 500 mm; Thermo Fisher Scientific, Rockford, IL, USA). The dynamic exclusion mode was applied as follows: repeat count = 3, repeat duration = 30 s, exclusion size list = 100, exclusion time = 180 s, and the exclusion mass width ± 10 ppm. Protein identification and quantification were performed as described in Section 2.7.
For further validation of the HTRA2-specific interaction partners, we performed a targeted MS analysis via accurate inclusion mass screening (AIMS) technology. […] This time, the LC-MS system “only” recorded the unique peptide sequences of the previously identified HTRA2 interaction partners. […]

Compound | Average degradation rate of the optimal substrate H2 by HTRA2 (enzymatic reaction rate per minute) ([1]; 30 µM UCF-101, 100 nM recombinant HTRA2, 10 µM H2-optimal substrate) [U/min] | Abundances of the co-enriched target proteins FNLA, NCKAP1, POTEE, PSMC1 and SEC13 compared with the HTRA2 group [2] | Decrease of the average degradation rate of the optimal substrate H2 compared with the untreated positive control ([1]; 50 µM peptide, 100 nM HTRA2, 10 µM substrate, RT) | Average degradation rate of the optimal substrate H2 by HTRA2 (enzymatic reaction rate per minute) ([1]; 50 µM peptide, 100 nM recombinant HTRA2, 10 µM H2-optimal substrate, fluorescence ex 320 nm / em 405 nm) [U/min] | Maximum degradation rate of the H2 optimal substrate by HTRA2 ([1]; 50 µM peptide, 1 h at 37 °C, n = 3, Figure 1C) | Inhibition of the proteolytic activity of HTRA2 ([1]; specific protease function assay, p < 0.01 (abstract))
O=C1C(=Cc2ccc(-c3ccccc3[N+](=O)[O-])o2)C(=O)N(c2ccccc2)C(=S)N1c1ccccc1 [UCF-101, reference compound] | 0 | slight decrease |  |  |  | 
ASGYTFTNYGLSWVR [CDR, synthetic peptide encoding a complementary-determining region 1 (CDR1) of polyclonal antibody molecules] |  | significantly diminished | around 45% | 127 | significantly decreased | up to 50%
